Assay results taken from patent US20070099983A1, “Aminocyclohexyl ether compounds and uses thereof” (Cardiome Pharma Corp., priority 2003, published 2007).

Experiments:
[1] = tested on: sustained AF maintained during continuous vagal nerve stimulation; test: Canine vagal-AF model: termination of sustained AF; type: in vivo, dog; conditions: IV, anesthetized dogs
Experimental: St.-Georges et al., 1997). Dogs are ventilated mechanically with room air supplemented with oxygen via an endotracheal tube at 20 to 25 breaths/minute with a tidal volume obtained from a monogram. […] Catheters are inserted into the femoral artery for blood pressure recording and blood gas measurement, and into both femoral veins for drug administration and venous sampling. […] Body temperature is maintained at 37-40° C. with a heating blanket. The heart is exposed via a medial thoracotomy and a pericardial cradle is created. […] Drug effects to terminate sustained AF maintained during continuous vagal nerve stimulation are assessed. […] The vagal stimulation voltage is adjusted under control conditions, and then readjusted after each treatment to maintain the same bradycardic effect. […] Diastolic threshold and ERP are determined in duplicate and averaged to give a single value. […] The interval between the stimulus artefact and the peak of the local electrogram is measured as an index of conduction velocity. […] The stimulus voltage-heart rate relationship for vagal nerve stimulation is determined under control conditions in most experiments. […] After the termination of AF, the diastolic threshold and ERP of the atrium and ventricle are determined. […] Group data are expressed as the mean±SEM. […]

[2] = tested on: conscious rats; test: Determination of CNS toxicity: convulsions in conscious rats on increasing i.v. infusion; type: in vivo; conditions: rat, in vivo; for convulsion dose: iv

Row | Compound | Median dose required for termination of AF [1] [µmol/kg] | Mean dose required for termination of AF ([1]; mean±EM) [µmol/kg] | cum conv dose [2] [µmol/kg] | convulsion dose [2] [µmol/kg/min]
1 | O=C(NCC1CCCCN1)c1cc(OCC(F)(F)F)ccc1OCC(F)(F)F (centres unmarked) [Flecainide] | 2.5 | 4 ± 2 | – | –
2 | Brc1ccc(CCO[C@H]2CCCCC2N2CCOCC2)cc1 (some centres unmarked) [Compound 32] | – | – | 91 | 12
3 | COc1ccc(CCO[C@H]2CCCCC2N2CC[C@H](OC(C)=O)C2)cc1OC.Cl (stereo partly drawn) [Compound 13, (3S)-1-{(1R,2R)/(1S,2S)-2-[2-(3,4-dimethoxyphenyl)-ethoxy]cyclohexyl}-pyrrolidin-3-yl acetate hydrochloride] | – | – | 51.9 | 8
4 | COc1ccc(CCO[C@@H]2CCCC[C@H]2N2CC[C@@H](OC(C)=O)C2)cc1OC.Cl [Compound 17, (3R)-1-{(1R,2R)-2-[2-(3,4-dimethoxyphenyl)-ethoxy]cyclohexyl}-pyrrolidin-3-yl acetate hydrochloride] | – | – | 74.3 | 13.33
5 | COc1ccc(CCCO[C@H]2CCCCC2N2CCOCC2)cc1OC.Cl (stereo partly drawn) [Compound 19, 4-{(1R,2R)/(1S,2S)-2-[3-(3,4-dimethoxyphenyl)-propoxy]cyclohexyl}morpholine hydrochloride] | – | – | 109 | 16
6 | Cl.OC1CCN(C2CCCC[C@@H]2OCCc2c(Cl)cccc2Cl)C1 (stereo partly drawn) [Compound 46, (1R,2R)/(1S,2S)-2-(3-hydroxypyrrolidinyl)-1-(2,6-dichlorophenethoxy) cyclohexane monohydrochloride] | – | – | 65 | –
7 | Cl.O[C@@H]1CCN(C2CCCC[C@@H]2OCCc2cc3ccccc3o2)C1 (stereo partly drawn) [Compound 29, (3R)-1-{(1R,2R)/(1S,2S)-2-[2-(1-benzofuran-2-yl)ethoxy]-cyclohexyl}-pyrrolidin-3-ol hydrochloride] | – | – | 65.67 | 10.67
8 | c1cc(CCO[C@H]2CCCCC2N2CCOCC2)c2ccsc2c1 (some centres unmarked) [Compound 37] | – | – | 54 | 8
9 | Cl.OC1CCN(C2CCCC[C@@H]2OCCc2ccccc2Br)C1 (stereo partly drawn) [Compound 24, (3R)/(3S)-1-{(1R,2R)/(1S,2S)-2-[2-(2-bromophenyl)-ethoxy]cyclohexyl}-pyrrolidin-3-ol hydrochloride] | – | – | 67 | 13
10 | Cl.O=C1CCN(C2CCCC[C@@H]2OCC(c2ccccc2)c2ccccc2)C1 (stereo partly drawn) [Compound 47, (1R,2R)/(1S,2S)-2-(3-ketopyrrolidinyl)-1-(2,2-diphenylethoxy)cyclo hexane monohydrochloride] | – | – | 155 | 21
11 | COc1ccc(CCO[C@H]2CCCC[C@@H]2N2CC[C@H](O)C2)cc1OC.Cl [Compound 7, (1S,2S)-2-[(3S)-Hydroxypyrrolidinyl]-1-(3,4-dimethoxyphenethoxy)cyclohexane monohydrochloride] | – | – | 451.67 | 64
12 | c1ccc2c(CCO[C@H]3CCCCC3N3CCOCC3)csc2c1 (some centres unmarked) [Compound 36] | – | – | 65 | 8
13 | COc1ccc(CCOC2CCCC[C@H]2N2CC=CC2)cc1OC.Cl (stereo partly drawn) [Compound 16, 1-{(1R,2R)/(1S,2S)-2-[2-(3,4-dimethoxyphenyl)-ethoxy]cyclohexyl}-2,5-dihydro-1H-pyrrole hydrochloride] | – | – | 44.4 | 8
14 | COc1cc(CCCO[C@H]2CCCCC2N2CC[C@@H](O)C2)cc(Cl)c1OC.Cl (stereo partly drawn) [Compound 21, (3R)-1-{(1R,2R)/(1S,2S)-2-[3-(3-chloro-4,5-dimethoxyphenyl)-propoxy]cyclohexyl}pyrrolidin-3-ol hydrochloride] | – | – | 90.9 | 13.33
15 | Cl.O=C1CCN([C@@H]2CCCCC2OCc2c(Cl)cccc2Cl)C1 (stereo partly drawn) [Compound 45, (1R,2R)/(1S,2S)-2-(3-ketopyrrolidinyl)-1-[(2,6-dichlorophenyl)methoxy]cyclohexane monohydrochloride] | – | – | 214 | 32
